Source: patent US20160333419A1, “GENE SIGNATURES ASSOCIATED WITH SENSITIVITY TO MDM2 INHIBITORS” (DAIICHI SANKYO COMPANY, LIMITED, priority 2014, published 2016)

Columns and labels:
Test in all cases: OncoPanel cytotoxicity assay
Type in all cases: cell-based
Capan-2 = conditions: Homo sapiens, 72 hour incubation
Procedure, shortened: (§1)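 Cells grown in RPMI 1640 with 10% FBS (or a special medium) at 37° C, 5% CO2 were treated 24 hours after seeding for 72 hours with 10 concentrations (3.16-fold dilutions, 0.1% DMSO final). Nuclei were dye-stained and imaged; IC50 was fit from percent of control relative cell count.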

BM-1604 = conditions: Homo sapiens, 72 hour incubation
Procedure, shortened: as §1

Caki-2 = conditions: Homo sapiens, 72 hour incubation
Procedure, shortened: as §1

HT-1197 = conditions: Homo sapiens, HT1197, 72 hour incubation
Procedure, shortened: as §1

Colo 205 = conditions: Homo sapiens, 72 hour incubation
Procedure, shortened: as §1

T98G = conditions: Homo sapiens, 72 hour incubation
Procedure, shortened: as §1

RPMI 6666 = conditions: Homo sapiens, 72 hour incubation
Procedure, shortened: as §1

L-428 = conditions: Homo sapiens, 72 hour incubation
Procedure, shortened: as §1

Hs 294T = conditions: Homo sapiens, 72 hour incubation
Procedure, shortened: as §1

U-138MG = conditions: Homo sapiens, U138-MG, 72 hour incubation
Procedure, shortened: as §1

NCI-H460 = conditions: Homo sapiens, 72 hour incubation
Procedure, shortened: as §1

NCIH441 = conditions: Homo sapiens, NCI-H441, 72 hour incubation
Procedure, shortened: as §1

RKOE6 = conditions: Homo sapiens, 72 hour incubation
Procedure, shortened: as §1

OCUG-1 = conditions: Homo sapiens, 72 hour incubation
Procedure, shortened: as §1

SR = conditions: Homo sapiens, 72 hour incubation
Procedure, shortened: as §1

786-O = conditions: Homo sapiens, 786-0, 72 hour incubation
Procedure, shortened: as §1

SNU-16 = conditions: Homo sapiens, 72 hour incubation
Procedure, shortened: as §1

NALM-6 = conditions: Homo sapiens, 72 hour incubation
Procedure, shortened: as §1

SJSA1 = conditions: Homo sapiens, SJSA-1, 72 hour incubation
Procedure, shortened: as §1

NCI-H661 = conditions: Homo sapiens, 72 hour incubation
Procedure, shortened: as §1

MG-63 = conditions: Homo sapiens, 72 hour incubation
Procedure, shortened: as §1

COLO 829 = conditions: Homo sapiens, 72 hour incubation
Procedure, shortened: as §1

HCT-15 = conditions: Homo sapiens, 72 hour incubation
Procedure, shortened: as §1

RKO-AS45-1 = conditions: Homo sapiens, RKOAS451, 72 hour incubation
Procedure, shortened: as §1

Capan-1 = conditions: Homo sapiens, 72 hour incubation
Procedure, shortened: as §1

BT474 = conditions: Homo sapiens, BT-474, 72 hour incubation
Procedure, shortened: as §1

A498 = conditions: Homo sapiens, 72 hour incubation
Procedure, shortened: as §1

HepG2 = conditions: Homo sapiens, 72 hour incubation
Procedure, shortened: as §1

ES-2 = conditions: Homo sapiens, 72 hour incubation
Procedure, shortened: as §1

HT1376 = conditions: Homo sapiens, HT-1376, 72 hour incubation
Procedure, shortened: as §1

U266B1 = conditions: Homo sapiens, 72 hour incubation
Procedure, shortened: as §1

D283 Med = conditions: Homo sapiens, 72 hour incubation
Procedure, shortened: as §1

ST486 = conditions: Homo sapiens, 72 hour incubation
Procedure, shortened: as §1

TCCSUP = conditions: Homo sapiens, TCC-SUP, 72 hour incubation
Procedure, shortened: as §1

MC-IXC = conditions: Homo sapiens, 72 hour incubation
Procedure, shortened: as §1

Ramos (RA 1) = conditions: Homo sapiens, 72 hour incubation
Procedure, shortened: as §1

HLE = conditions: Homo sapiens, 72 hour incubation
Procedure, shortened: as §1

DMS53 = conditions: Homo sapiens, DMS-53, 72 hour incubation
Procedure, shortened: as §1

SMILES: CC[C@@H]1CNC2(CC2)CN1C(=O)[C@@H]1C[C@@H](F)CN1C(=O)C1=C(C(C)C)N2C(=N[C@@](C)(c3ccc(Cl)nc3)[C@H]2c2ccc(Cl)c(F)c2)S1 [Compound A, [(5R,6S)-5-(4-Chloro-3-fluorophenyl)-6-(6-chloropyridin-3-yl)-6-methyl-3-(propan-2-yl)-5,6-dihydroimidazo[2,1-b][1,3]thiazol-2-yl][(2S,4R)-2-{[(6R)-6-ethyl-4,7-diazaspiro[2.5]oct-7-yl]carbonyl}-4-fluoropyrrolidin-1-yl]methanone]
- IC50 (Capan-2): > 40 µM
- IC50 (BM-1604): > 40 µM
- IC50 (Caki-2): 0.472 µM
- IC50 (HT-1197): 0.235 µM
- IC50 (Colo 205): 36.7 µM
- IC50 (T98G): > 40 µM
- IC50 (RPMI 6666): 1.7 µM
- IC50 (L-428): > 40 µM
- IC50 (Hs 294T): 1.23 µM
- IC50 (U-138MG): > 40 µM
- IC50 (NCI-H460): 0.515 µM
- IC50 (NCIH441): > 40 µM
- IC50 (RKOE6): 38.2 µM
- IC50 (OCUG-1): > 40 µM
- IC50 (SR): 0.257 µM
- IC50 (786-O): 37.3 µM
- IC50 (SNU-16): 28.5 µM
- IC50 (NALM-6): 0.658 µM
- IC50 (SJSA1): 0.214 µM
- IC50 (NCI-H661): > 40 µM
- IC50 (MG-63): > 40 µM
- IC50 (COLO 829): 0.289 µM
- IC50 (HCT-15): 32 µM
- IC50 (RKO-AS45-1): 0.471 µM
- IC50 (Capan-1): > 40 µM
- IC50 (BT474): > 40 µM
- IC50 (A498): 1.71 µM
- IC50 (HepG2): 0.335 µM
- IC50 (ES-2): 14.5 µM
- IC50 (HT1376): 38.9 µM
- IC50 (U266B1): > 40 µM
- IC50 (D283 Med): 0.529 µM
- IC50 (ST486): 24.3 µM
- IC50 (TCCSUP): > 40 µM
- IC50 (MC-IXC): 22.7 µM
- IC50 (Ramos (RA 1)): > 40 µM
- IC50 (HLE): 28.9 µM
- IC50 (DMS53): 38.4 µM

SMILES: CC1(C)CCC2(CC1)N[C@@H](C(=O)N[C@@H]1CC[C@@H](C(N)=O)OC1)[C@H](c1ccnc(Cl)c1F)[C@]21C(=O)Nc2cc(Cl)ccc21 [Compound B, (3′R,4′S,5′R)—N-[(3R,6S)-6-carbamoyltetrahydro-2H-pyran-3-yl]-6″-chloro-4′-(2-chloro-3-fluoropyridin-4-yl)-4,4-dimethyl-2″-oxo-1″,2″-dihydrodispiro[cyclohexane-1,2′-pyrrolidine-3′,3″-indole]-5′-carboxamide]
- IC50 (Capan-2): > 10 µM
- IC50 (BM-1604): > 10 µM
- IC50 (Caki-2): 0.0821 µM
- IC50 (HT-1197): 0.135 µM
- IC50 (Colo 205): 9.48 µM
- IC50 (T98G): > 10 µM
- IC50 (RPMI 6666): 0.0793 µM
- IC50 (L-428): > 10 µM
- IC50 (Hs 294T): 3.24 µM
- IC50 (U-138MG): > 10 µM
- IC50 (NCI-H460): 0.0664 µM
- IC50 (NCIH441): > 10 µM
- IC50 (RKOE6): 7.59 µM
- IC50 (OCUG-1): > 10 µM
- IC50 (SR): 0.0262 µM
- IC50 (786-O): 0.342 µM
- IC50 (SNU-16): 9.92 µM
- IC50 (NALM-6): 0.065 µM
- IC50 (SJSA1): 0.0261 µM
- IC50 (NCI-H661): 6.59 µM
- IC50 (MG-63): > 10 µM
- IC50 (COLO 829): 0.0266 µM
- IC50 (HCT-15): > 10 µM
- IC50 (RKO-AS45-1): 0.074 µM
- IC50 (Capan-1): > 10 µM
- IC50 (BT474): > 10 µM
- IC50 (A498): 0.119 µM
- IC50 (HepG2): 0.0584 µM
- IC50 (ES-2): 6.3 µM
- IC50 (HT1376): > 10 µM
- IC50 (U266B1): > 10 µM
- IC50 (D283 Med): 0.0819 µM
- IC50 (ST486): 6.44 µM
- IC50 (TCCSUP): > 10 µM
- IC50 (MC-IXC): 8.62 µM
- IC50 (Ramos (RA 1)): 8.66 µM
- IC50 (HLE): > 10 µM
- IC50 (DMS53): > 10 µM
